Assay results from patent publication US8088749B2, “Compositions and methods for treating cancer” (The Regents of the University of Michigan, priority 2007, dated 2012).

Legend:
Type in all cases: cell-based, human
[1] = test system: ATDC; test: ATDC nuclear foci by immunofluorescence after gemcitabine, Panc-1 cells; conditions: gemcitabine (amount/time); 50 uM
Description: (A). Panc1 cells exposed to IR (5 Gy, 1 hr) were fixed and costained with anti-ATDC (red) and anti-γH2AX (green) antibodies. […] Cell nuclei were counterstained with DAPI (blue). (B) Panc-1 cells exposed to IR (5 Gy, 1 hr) and co-immunostained with anti-ATDC antibody (red) and anti-p-ATM antibody (green). Co-localization of ATDC (red) with p-ATM (green) is observed in yellow in the merged image. Experiments were repeated twice with similar results. […] Results representative of 3 separate experiments.
It has been well-documented that in response to DNA damage, numerous proteins involved in the DNA damage response traffic to discrete nuclear foci. […] Using double immunofluorescence staining, it was observed that ATDC co-localized with γH2AX (FIG. 7A), presumably at DNA damage foci. […] ATDC co-localized with ATR following gemcitabine treatment (FIG. 7B). The time course of ATDC localizing to DNA damage foci was similar to the time course of the formation of foci of phosphorylated H2AX. Whether ATDC is required for the formation of γH2AX and/or ATR foci in pancreatic cancer cells following gemcitabine was investigated.

[2] = test system: ATDC; test: ATDC phosphorylation in transfected HEK293 cells
Method: (B) Knockdown of ATM by specific ATM shRNA prevents IR induced phosphorylation of ATDC in Panc1 cells (n=3). (C) IR-dependent phosphorylation of ATDC occurs at serine 550. HEK 293 cells over-expressing wild type or S550A mutant ATDC were treated with IR (10 Gy) for varyin times (0-60 min). Cell lysates were harvested and co-immunoprecipitation experiments were performed using anti-ATDC and anti-phospho-serine/threonine antibodies. Results are representative of three separate experiments (D) Gemcitabine induces phosphorylation of ATDC in transfected HEK293 cells.
ATDC has overlapping function with ATM in cell cycle checkpoint activation and that trafficking of ATDC to DNA repair foci was dependent on ATM (see, e.g., FIGS. 4,6,7,8). ATDC had been shown previously to undergo phosphorylation on serine/threonine in A431 cells (see, e.g., Laderoute K R, et al., Int J Cancer 1996; 66: 772-778). It was hypothesized therefore that ATDC is a phosphorylation target of ATM and ATR. It is known that phosphorylation targets of ATM/ATR share a common motif, with either a serine or threonine residue, usually followed by a glutamine (the SQ or TQ motif) (see, e.g., Ziv Y, et al., Nature Cell Biol 2006; 8: 870-876). […] It was verified that ATDC functioned downstream of ATM, since silencing of ATDC had no effect on the phosphorylation of ATM in response to IR (FIG. 11A). […]

[3] = test system: H2AX; test: H2AX phosphorylation after gemcitabine, Panc-1 cells; conditions: control Panc-1 cells, gemcitabine 50 uM
Description: […] Top, flowcytometric analysis of γH2AX and propidium iodide staining of DNA content. […] Bottom, comparison of the total DNA content of the population (black) versus the γH2AX-positive fraction (green). Results are representative 3 separate experiments.

[4] = test system: p53 and Chk1; test: Phosphorylation of p53 and Chk1 in response to gemcitabine, Panc-1 cells; conditions: gemcitabine 10 μM; control shRNA Panc-1 cells
Method: To further investigate the role of ATDC in the DNA damage response, the effect of silencing ATDC on phosphorylation of p53 and Chk1 was investigated. In response to gemcitabine (10 μM), replication forks stall and the ATR signaling cascade is activated, which phosphorylates and activates several proteins critical to inducing the G1-S cell cycle checkpoint, including p53 and Chk1 (see, e.g., Ljungman M, Mutation Res 2005; 577: 203-216).

Nc1ccn([C@@H]2O[C@H](CO)[C@@H](O)C2(F)F)c(=O)n1 [gemcitabine]
ATDC nuclear foci formation [1]: ATDC formed discrete nuclear foci | phosphorylation of ATDC [2]: induces | time of induction of H2AX phosphorylation [3]: ≤ 10 min | time of return of H2AX phosphorylation to basal levels [3]: 1 h | H2AX phosphorylation ([3]; x hours): transient H2AX phosphorylation | phosphorylation of p53 and Chk1 [4]: underwent phosphorylation
